Results from PMC10086185, “Synthesis, radiolabeling, and evaluation of a (4-quinolinoyl)glycyl-2-cyanopyrrolidine analogue for fibroblast activation protein (FAP) PET imaging” (Frontiers in Bioengineering and Biotechnology, 2023).

What was measured:
[1] = test system: U87MG cells; assay: Cellular uptake of [^18F]3 in U87MG cells; assay type: cell-based; settings: U87 cells
Protocol: Briefly, all cells were divided into the following two groups: A: blocking group and B: vehicle group. All cells were cultured, grouped, and plated (approximately 2*10^6 cells per well) before use. Cells were treated with [^18F]3 (74 KBq) and incubated at 37°C under a 5% CO2 atmosphere. […] Incubated at 37°C for 1 h, the medium from each well was removed, and the cells were washed twice with 1 mL of PBS. The medium and the PBS from each well were combined and counted in a Gamma counter (PerkinElmer Wizard 2470) for radioactivity counts. The cells were then handled with 1 mL of 1 M NaOH, and the lysates were also counted in the Wizard 2470 gamma counter. The uptake ratios for each group were then calculated with this equation: %Dose = […](medium counts + PBS counts + cell lysate counts).

[2] = test system: U87MG xenograft tumors; assay: Micro-PET/CT imaging, U87MG xenograft tumors; assay type: in vivo, BALB/c nude mice; settings: U87MG xenografted tumors, within 90 min
Protocol: BALB/c nude mice used in this study were obtained from the Animal Center of Sichuan University. Tumor-bearing mouse models were established by the subcutaneous injection of 100 µL of PBS suspension containing approximately 1*10^6 tumor cells to the body side of the subjects. The tumor volume was monitored every day, and the tumor-bearing mice were ready for imaging once the tumor volume reached 0.5 mm^3 (tumor volume can be calculated by this equation: Volume = 0.5 * long tail * short tail *short tail). Micro-PET/CT imaging studies were performed on the IRIS Micro-PET/CT system (Inviscan SAS, France). Tumor-bearing mice were injected with approximately 11.2–14.8 MBq of [^18F]3 (200 µL) via the tail vein under anaesthetization by isoflurane. Static PET images were obtained at designated time points and were reconstructed with a 3D-OSEM algorithm using a Monte Carlo-based accurate detector model. Then, 170 sec-CT acquisition was conducted with 50 kV, 1 mA X-ray output for attenuation correction and anatomical orientation. […]
BALB/c nude mice used in this study were obtained from the Animal Center of Sichuan university. […] The tumor volume was monitored every day and the tumor-bearing mice were ready for imaging once the tumor volume reach 0.5 mm^3 (tumor volume can be calculated by this equation: Volume = 0.5 * long tail * short tail *short tail). […]

[3] = Micro-PET/CT imaging, organ SUV in tumor-bearing nude mice; assay type: in vivo, BALB/c nude mice
Protocol: BALB/c nude mice used in this study were obtained from the Animal Center of Sichuan University. Tumor-bearing mouse models were established by the subcutaneous injection of 100 µL of PBS suspension containing approximately 1*10^6 tumor cells to the body side of the subjects. The tumor volume was monitored every day, and the tumor-bearing mice were ready for imaging once the tumor volume reached 0.5 mm^3 (tumor volume can be calculated by this equation: Volume = 0.5 * long tail * short tail *short tail). Micro-PET/CT imaging studies were performed on the IRIS Micro-PET/CT system (Inviscan SAS, France). Tumor-bearing mice were injected with approximately 11.2–14.8 MBq of [^18F]3 (200 µL) via the tail vein under anaesthetization by isoflurane. Static PET images were obtained at designated time points and were reconstructed with a 3D-OSEM algorithm using a Monte Carlo-based accurate detector model. Then, 170 sec-CT acquisition was conducted with 50 kV, 1 mA X-ray output for attenuation correction and anatomical orientation. ROIs (regions of interest) were drawn on the lung, kidney, liver, and tumor by OsiriX software. SUV (standardized uptake value) of the ROIs was directly obtained from OsiriX for each subject according to this formula: SUV = Voxal value (Bq/mL) * Body weight (kg)/(Decay corrected Dose (Bq) * 1,000 (g/kg)).
BALB/c nude mice used in this study were obtained from the Animal Center of Sichuan university. Tumor-bearing mice model were established by the subcutaneous injection of 100 µL of PBS suspension containing approximately 1*10^6 tumor cells to the body side of the subjects. The tumor volume was monitored every day and the tumor-bearing mice were ready for imaging once the tumor volume reach 0.5 mm^3 (tumor volume can be calculated by this equation: Volume = 0.5 * long tail * short tail *short tail). Micro-PET/CT imaging studies were performed on the IRIS Micro-PET/CT system (Inviscan SAS, France). Tumor-bearing mice were injected with approximately 11.2-14.8 MBq of [^18F]3 (200 µL) via tail vein under anaesthetization by isoflurane. Static PET images were obtained at designated time points and were reconstructed with a 3D-OSEM algorithm using a Monte-Carlo based accurate detector model. A 170 sec-CT acquisition was conducted with 50 kV, 1 mA X-ray output for attenuation correction and anatomical orientation. ROIs (regions of interest) were drawn on lung, kidney, liver and tumor by Osirix software. SUV (standardized uptake value) of the ROIs was directly obtained from Osirix for each subject according to this formula: SUV = Voxal value (Bq/mL) * Body weight (kg)/(Decay corrected Dose (Bq) * 1000 (g/kg)).

## N#C[C@@H]1CC(F)(F)CN1C(=O)CNC(=O)c1ccnc2ccc([18F])cc12 [[^18F]3]
[1]; 1 h, pre-treatment with compound 3, 10 µM
  Cellular uptake ratio, blocking group: 1.19% ± 0.02%
[1]; 1 h incubation, vehicle group
  Cellular uptake ratio: 1.50% ± 0.13%
[2]
  Tumor SUV: greater than 0.22
[3]; 15 min p.i.
  SUV in the liver: about 5.0
[3]; 90 min p.i.
  SUV in the kidney: 3.0
[3]; end of the scan
  SUV in the bladder: greater than 8.0
[3]; end of the scan (90 min)
  SUV in the liver: 2.0
[3]; initial
  SUV in the kidney: about 5.0
[3]; mouse, in vivo
  SUV in the brain: less than 0.3
